Results as given in patent US20180312473A1, “PHENAZINE DERIVATIVES AS ANTIMICROBIAL AGENTS” (priority 2015, published 2018).
In brackets after ≈: the same amount, converted by molar mass. Read-outs that look alike come from different tables or passages of the source.

Legend:
[1] = tested on: MRSA-2 (methicillin-resistant Staphylococcus aureus clinical isolate); test: MIC assay (broth microdilution, CLSI); type: cell-based; conditions: Staphylococcus aureus, MRSA, read-out: MIC, MRSA-2
[2] = tested on: Staphylococcus epidermidis (ATCC 12228); test: MIC assay (broth microdilution, CLSI); type: cell-based; conditions: Staphylococcus epidermidis, ATCC12228
[3] = tested on: Staphylococcus epidermidis (ATCC 35984), MRSE; test: MIC assay (broth microdilution, CLSI); type: cell-based; conditions: Staphylococcus epidermidis
[4] = tested on: Enterococcus faecium (ATCC 700221), VRE; test: MIC assay (broth microdilution, CLSI); type: cell-based
[5] = tested on: human red blood cells; test: Hemolysis assay with red blood cells; conditions: human, 1 h, 200 μM, pH 7.2
Protocol: The hemolysis activities of select compounds of the invention were determined. […] The washing was repeated three times with the buffer. In 96-well plate, test compounds were added to the buffer from DMSO stocks. […] The plate was then incubated for 1 hour at 37° C. After incubation, the plate was centrifuged for 5 minutes at 3,500 rpm. Then 80 μL of the supernatant was transferred to another 96-well plate, and the optical density (OD) was read at 405 nm. DMSO served as the negative control (0% hemolysis), while Triton X served as the positive control (100% hemolysis). The percent of hemolysis was calculated as (OD405 of the compound−OD405 of DMSO)/(OD405 of Triton X−OD405 of the buffer).
The washing was repeated three times with the buffer. In 96-well plate, test compounds were added to the buffer from DMSO stocks. […] The plate was then incubated for 1 hour at 37° C. After incubation, the plate was centrifuged for 5 minutes at 3,500 rpm. Then 80 μL of the supernatant was transferred to another 96-well plate and the optical density (OD) was read at 405 nm. DMSO served as our negative control (0% hemolysis) while Triton X served as our positive control (100% hemolysis). The percent of hemolysis was calculated as (OD405 of the test compound−OD405 DMSO)/(OD405 Triton X−OD405 buffer) from three independent experiments.

[6] = tested on: MRSA-2 planktonic cells and biofilms; test: Calgary Biofilm Device (CBD) assay, MBC/MBEC; type: cell-based, Staphylococcus aureus; conditions: Staphylococcus aureus, MRSA
[7] = tested on: MRSE (S. epidermidis ATCC 35984) planktonic cells and biofilms; test: Calgary Biofilm Device (CBD) assay, MBC/MBEC; type: cell-based, Staphylococcus epidermidis; conditions: Staphylococcus epidermidis; Table 8; read-out: MRSE 35984 MBC
[8] = tested on: VRE (E. faecium ATCC 700221) planktonic cells and biofilms; test: Calgary Biofilm Device (CBD) assay, MBC/MBEC; type: cell-based, Enterococcus faecium; conditions: Enterococcus; Table 8; c lowest concentration tested; read-out: VRE 700221 MBC
[9] = tested on: A. baumannii 19606; test: MIC assay (broth microdilution, CLSI); type: cell-based, Acinetobacter baumannii; conditions: Acinetobacter baumannii, 19606; read-out: A. baumannii 19606 MIC
[10] = tested on: P. aeruginosa (PAO1); test: MIC assay (broth microdilution, CLSI); type: cell-based; conditions: Pseudomonas aeruginosa, PAO1; read-out: PAO1 MIC
[11] = tested on: K. pneumoniae 13883; test: MIC assay (broth microdilution, CLSI); type: cell-based, Klebsiella pneumoniae; conditions: Klebsiella pneumoniae, 13883; read-out: K. pneumoniae 13883 MIC
[12] = tested on: E. coli UAEC-1; test: MIC assay (broth microdilution, CLSI); type: cell-based; conditions: Escherichia coli, UAEC1; read-out: E. coli UAEC-1 MIC
[13] = tested on: MRSA-2; test: MIC assay with Tiron or metal(II) cation co-treatment; type: cell-based, Staphylococcus aureus; conditions: for MIC: Staphylococcus aureus
[14] = tested on: S. epidermidis 12228; test: as above; type: cell-based, Staphylococcus epidermidis; conditions: for MIC: Staphylococcus epidermidis
[15] = tested on: E. faecium 700221 (VRE); test: as above; type: cell-based, Enterococcus faecium; conditions: for MIC: Enterococcus faecium, VRE
[16] = tested on: MRSA BAA-1707; test: MIC assay (broth microdilution, CLSI); conditions: Staphylococcus aureus, read-out: MIC, MRSA BAA-1707
[17] = tested on: MRSA BAA-44; test: MIC assay (broth microdilution, CLSI); conditions: Staphylococcus aureus, read-out: MIC, MRSA BAA-44
[18] = in vitro; type: cell-based; conditions: human
Protocol: The cytotoxicities of select compounds of the invention against HeLa cells were determined. HeLa cytotoxicity was assessed using the LDH release assay described by CYTOTOX96 (Promega G1780). HeLa cells were grown in Dulbecco's Modified Eagle Medium (DMEM; Gibco) supplemented with 10% Fetal Bovine Serum (FBS) at 37° C. with 5% CO2. […] Triton X-100 (at 2% v/v) was used as the positive control for maximum lactate dehydrogenate (LDH) activity in this assay (e.g., complete cell death), while “medium only” lanes served as negative control lanes (e.g., no cell death). DMSO was used as the vehicle control. […] Finally, Stop Solution (50 μL) was added to the incubating plates, and the absorbance was measured at 490 nm.
HeLa cytotoxicity was assessed using the LDH release assay described by CYTOTOX96 (Promega G1780). HeLa cells were grown in Dulbecco's Modified Eagle Medium (DMEM; Gibco) supplemented with 10% Fetal Bovine Serum (FBS) at 37° C. with 5% CO2. […] Triton X-100 (at 2% v/v) was used as the positive control for maximum lactate dehydrogenate (LDH) activity in this assay (e.g., complete cell death), while “medium only” lanes served as negative control lanes (e.g., no cell death). DMSO was used as our vehicle control. […] Finally, Stop Solution (50 μL) was added to the incubating plates and the absorbance was measured at 490 nm. Results are from three independent experiments (FIG. 19)

[19] = tested on: M. tuberculosis H37Ra (ATCC 25177); test: Mycobacterium tuberculosis MIC assay; type: cell-based; conditions: Table 7, read-out: MIC, M. tuberculosis H37Ra
Protocol: (§1) The culture was then diluted with fresh medium until an OD600 of 0.01 was reached. […] The final DMSO concentration was maintained at 0.5%. […] Three rows were reserved for each compound. […] OD600 absorbance was recorded using SPECTRAMAX M5 (Molecular Devices). Data obtained from three independent experiments were analyzed using Excel.
as §1, with “EXCEL.” for “Excel.”

[20] = Table 7, a midpoint of 2-fold range, b lowest concentration tested
[21] = Table 7, b lowest concentration tested, read-out: MIC, S. epidermidis 12228
[22] = Table 7, read-out: MIC, MRSE 35984
[23] = Table 7, b lowest concentration tested, read-out: MIC, VRE 700221
[24] = Table 8, a/b 2-/4-fold range in independent experiments, read-out: MRSA-2 MBC
[25] = MRSA-2, + loss, − increase of activity
[26] = S. epidermidis 12228, + loss, − increase of activity
[27] = E. faecium 700221, + loss, − increase of activity
[28] = Table 2A, read-out: MIC, Staphylococcus epidermidis (ATCC 12228)
[29] = Table 2A, read-out: MIC, Staphylococcus epidermidis (ATCC 35984)
[30] = Enterococcus faecium, Table 2A, read-out: MIC, Enterococcus faecium (ATCC 700221)

SMILES	MIC [1, 20]	MIC [2, 21]	MIC [3, 22]	MIC [4, 23]	% Hemolysis at 200 μM [5]	MBC [6, 24]	MBC [7]	MIC [9]	MIC [10]	MIC [11]	MIC [12]	MIC [16]	MIC [17]	MIC ([1]; Table 2A)	MIC [2, 28]	MIC [3, 29]	MIC [4, 30]	% Hemolysis (200 μM) [5]	IC50 at 24 h [18]	MBC ([6]; Table 4, read-out: MBC, MRSA-2)	other results
Oc1ccc(Br)c2nc3cc(Br)c(Br)cc3nc12 [Compound 13]	1.56 µM (≈ 0.675 µg/mL)	2.35 µM (≈ 1.02 µg/mL)	3.13 µM (≈ 1.35 µg/mL)	6.25 µM (≈ 2.71 µg/mL)	≤1%	> 200 µM	> 200 µM	> 100 µM	> 100 µM	> 100 µM	> 100 µM	0.56 µM (≈ 0.242 µg/mL)	1.56 µM (≈ 0.675 µg/mL)	–	–	–	–	–	–	–	MBC [8]: > 200 µM; Fold Δ (Cu^2+) [13, 25]: +8; Fold Δ (Fe^2+) [13, 25]: +2; Fold Δ (Tiron) [13, 25]: −125; MIC ([13]; MRSA-2, 200 μM copper(II), read-out: MIC with Cu^2+): > 100 µM; MIC ([13]; MRSA-2, 200 μM iron(II), read-out: MIC with Fe^2+): 25 µM; MIC ([13]; MRSA-2, 1 mM Tiron, read-out: MIC with Tiron): 0.1 µM; MIC ([13]; MRSA-2, no additive (Table 9), read-out: MIC): 12.5 µM; Fold Δ (Cu^2+) [14, 26]: +500; Fold Δ (Tiron) [14, 26]: n.a. (insignificant changes in MIC values (≤2-fold changes)); MIC ([14]; S. epidermidis 12228, 200 μM CuSO4, read-out: MIC with Cu^2+): 50 µM; MIC ([14]; S. epidermidis 12228, 1 mM Tiron, read-out: MIC with Tiron): 0.1 µM; MIC ([14]; S. epidermidis 12228, no additive, read-out: MIC): 0.1 µM; Fold Δ (Cu^2+) [15, 27]: +64; Fold Δ (Tiron) [15, 27]: n.a. (insignificant changes in MIC values (≤2-fold changes)); MIC ([15]; E. faecium 700221, 200 μM CuSO4, read-out: MIC with Cu^2+): 25 µM; MIC ([15]; E. faecium 700221, 1 mM Tiron, read-out: MIC with Tiron): 0.39 µM; MIC ([15]; E. faecium 700221, no additive, read-out: MIC): 0.39 µM
COc1cccc2nc3cc(Cl)c(Cl)cc3nc12 [Compound 20, 7,8-Dichloro-1-methoxyphenazine]	> 100 µM	> 100 µM	> 100 µM	> 100 µM	–	–	–	> 100 µM	> 100 µM	> 100 µM	> 100 µM	–	–	> 100 µM	> 100 µM	> 100 µM	> 100 µM	1.5%	–	–	–
Oc1cccc2nc3cc(Cl)c(Cl)cc3nc12 [Compound 21]	> 100 µM	> 100 µM	> 100 µM	> 100 µM	–	–	–	> 100 µM	> 100 µM	> 100 µM	> 100 µM	–	–	> 100 µM	> 100 µM	> 100 µM	> 100 µM	≤1%	–	–	–
Oc1c(Br)cc(Br)c2nccnc12 [Compound 25]	25 µM (≈ 7.6 µg/mL)	18.8 µM (≈ 5.71 µg/mL)	18.8 µM (≈ 5.71 µg/mL)	100 µM (≈ 30.4 µg/mL)	1.8%	1500 µM (≈ 456 µg/mL)	–	6.25 µM (≈ 1.9 µg/mL)	> 100 µM	–	12.5 µM (≈ 3.8 µg/mL)	6.25 µM (≈ 1.9 µg/mL)	12.5 µM (≈ 3.8 µg/mL)	25 µM (≈ 7.6 µg/mL)	12.5 to 25 µM (≈ 3.8 to 7.6 µg/mL)	12.5 to 25 µM (≈ 3.8 to 7.6 µg/mL)	100 µM (≈ 30.4 µg/mL)	1.8%	> 100 µM	1500 µM (≈ 456 µg/mL)	–
Cc1nc2c(Br)cc(Br)c(O)c2nc1C [Compound 27]	–	12.5 µM (≈ 4.15 µg/mL)	–	25 µM (≈ 8.3 µg/mL)	≤1%	125 µM (≈ 41.5 µg/mL)	–	> 100 µM	> 100 µM	> 100 µM	> 100 µM	–	6.25 µM (≈ 2.07 µg/mL)	–	12.5 µM (≈ 4.15 µg/mL)	–	25 µM (≈ 8.3 µg/mL)	≤1%	–	125 µM (≈ 41.5 µg/mL)	–
Cc1nc2c(I)cc(I)c(O)c2nc1C [Compound 28]	–	2.35 µM (≈ 1 µg/mL)	–	6.25 µM (≈ 2.66 µg/mL)	1.2%	93.8 µM (≈ 40 µg/mL)	23.5 µM (≈ 10 µg/mL)	> 100 µM	> 100 µM	> 100 µM	> 100 µM	–	–	–	1.56 to 3.13 µM (≈ 0.665 to 1.33 µg/mL)	–	6.25 µM (≈ 2.66 µg/mL)	1.2%	> 100 µM	93.8 µM (≈ 40 µg/mL)	MIC ([19]; Mycobacterium tuberculosis): > 50 µM; MIC [19]: >50 µM
